Measured values taken from ChEMBL document CHEMBL1122370 (J Med Chem, 1983).

Legend:
L1210 [1] = assay: In vivo antitumor activity against L1210 leukemia in 18 mice measured as T/C values; T/C = 18/9; assay type: functional, Mus musculus
L1210 [2] = assay: In vivo antitumor activity against L1210 leukemia in 5 mice measured as median survival range at 20 mg/kg; Value ranges from(13-22); assay type: functional, Mus musculus
Mus musculus [3] = assay: (§1) Average weight of the mouse after treating with 20 mg/kg dose for 7 days.; assay type: functional; set-up: unit not given beside the values
L1210 [4] = assay: In vivo antitumor activity against L1210 leukemia in 17 mice measured as T/C values; T/C = 17/9; assay type: functional, Mus musculus
L1210 [5] = assay: In vivo anti tumor activity against L1210 leukemia in 5 mice measured as Increased life span at 10 mg/kg.; assay type: functional; conditions: Mus musculus
L1210 [6] = assay: In vivo antitumor activity against L1210 leukemia in 5 mice measured as Increased life span at 40 mg/kg.; assay type: functional; conditions: Mus musculus
Mus musculus [7] = assay: Average weight of the mouse after treating with 40 mg/kg dose for 7 days.; assay type: functional; set-up: unit not given beside the values
L1210 [8] = assay: In vivo antitumor activity against L1210 leukemia in 5 mice measured as median survival range at 10 mg/kg; Value ranges from(13-20); assay type: functional, Mus musculus
L1210 [9] = assay: In vivo antitumor activity against L1210 leukemia in 24 mice measured as T/C value; T/C = 24/9; assay type: functional, Mus musculus
L1210 [10] = assay: In vivo antitumor activity against L1210 leukemia in 5 mice measured as Increased life span at 20 mg/kg.; assay type: functional; conditions: Mus musculus
Mus musculus [11] = assay: Average weight of the mouse after treating with 40 mg/kg dose for 1 day.; assay type: functional; set-up: unit not given here
Mus musculus [12] = assay: Average weight of the mouse after treating with 10 mg/kg dose for 7 days.; assay type: functional
Mus musculus [13] = assay: Average weight of the mouse after treating with 20 mg/kg dose for 1 day.; assay type: functional; set-up: unit not given here
L1210 [14] = assay: In vivo antitumor activity against L1210 leukemia in 5 mice measured as median survival range at 40 mg/kg; Value ranges from(22-27); assay type: functional, Mus musculus
Mus musculus [15] = assay: Average weight of the mouse after treating with 10 mg/kg dose for 1 day.; assay type: functional; set-up: unit not given here
L1210 [16] = assay: In vivo antitumor activity against L1210 leukemia in 15 mice measured as T/C values; T/C = 15/9; assay type: functional, Mus musculus
L1210 [17] = assay: In vivo antitumor activity against L1210 leukemia in 5 mice measured as median survival range at 10 mg/kg; Value ranges from(15-21); assay type: functional, Mus musculus
L1210 [18] = assay: In vivo antitumor activity against L1210 leukemia in 5 mice measured as median survival range at 20 mg/kg; Value ranges from(17-25); assay type: functional, Mus musculus
Mus musculus [19] = assay: as §1; assay type: functional
L1210 [20] = assay: In vivo antitumor activity against L1210 leukemia in 5 mice measured as Increased life span at 10 mg/kg.; assay type: functional; conditions: Mus musculus
L1210 [21] = assay: In vivo antitumor activity against L1210 leukemia in 5 mice measured as median survival range at 40 mg/kg; Value ranges from (12-20); assay type: functional, Mus musculus
L1210 [22] = assay: In vivo antitumor activity against L1210 leukemia in 14 mice measured as T/C values; T/C = 14/9; assay type: functional, Mus musculus
L1210 [23] = assay: In vivo antitumor activity against L1210 leukemia in 13 mice measured as T/C values; T/C = 13/9; assay type: functional, Mus musculus
L1210 [24] = assay: In vivo antitumor activity against L1210 leukemia in 5 mice measured as median survival range at 20 mg/kg; Value ranges from (11-15); assay type: functional, Mus musculus
Mus musculus [25] = assay: Average weight change in mouse after treating with 40 mg/kg dose for 7 days.; assay type: functional
Mus musculus [26] = assay: Average weight change in mouse after treating with 20 mg/kg dose for 7 days.; assay type: functional; set-up: unit not given beside the values
L1210 [27] = assay: In vivo antitumor activity against L1210 leukemia in 5 mice measured as median survival range at 10 mg/kg; Value ranges from (11-13); assay type: functional, Mus musculus
L1210 [28] = assay: In vivo antitumor activity against L1210 leukemia in 5 mice measured as median survival range at 20 mg/kg; Value ranges from (12-16); assay type: functional, Mus musculus
Mus musculus [29] = assay: Average weight change in mouse after treating with 10 mg/kg dose for 7 days.; assay type: functional
L1210 [30] = assay: In vivo antitumor activity against L1210 leukemia in 14 mice measured as T/C values(days); T/C = 14/9; assay type: functional, Mus musculus
L1210 [31] = assay: In vivo antitumor activity against L1210 leukemia in 5 mice measured as median survival range at 40 mg/kg; Value ranges from (11-21); assay type: functional, Mus musculus
L1210 [32] = assay: In vivo antitumor activity against L1210 leukemia in 5 mice measured as T/C values(days); T/C = 17/9; assay type: functional, Mus musculus
L1210 [33] = assay: In vivo antitumor activity against L1210 leukemia in 12 mice measured as T/C values; T/C = 12/9; assay type: functional, Mus musculus
L1210 [34] = assay: In vivo antitumor activity against L1210 leukemia in 5 mice measured as median survival range at 20 mg/kg; Value ranges from (11-17); assay type: functional, Mus musculus
L1210 [35] = assay: In vivo anti tumor activity against L1210 leukemia in 19 mice measured as T/C values; T/C = 19/9; assay type: functional, Mus musculus
L1210 [36] = assay: In vivo anti tumor activity against L1210 leukemia in 5 mice measured as Increased life span at 40 mg/kg.; assay type: functional; conditions: Mus musculus
L1210 [37] = assay: In vivo anti tumor activity against L1210 leukemia in 5 mice measured as Increased life span at 20 mg/kg.; assay type: functional; conditions: Mus musculus
L1210 [38] = assay: In vivo anti tumor activity against L1210 leukemia in 13 mice measured as T/C values at 20 mg/kg; T/C = 13/9; assay type: functional, Mus musculus
L1210 [39] = assay: In vivo antitumor activity against L1210 leukemia in 5 mice measured as median survival range at 40 mg/kg; Value ranges from (16-19); assay type: functional, Mus musculus
Mus musculus [40] = assay: Average weight of the mouse after treating with 30 mg/kg dose for 1 day.; assay type: functional
Mus musculus [41] = assay: Average weight of the mouse after treating with 60 mg/kg dose for 1 day.; assay type: functional
L1210 [42] = assay: In vivo anti tumor activity against L1210 leukemia in 10 mice measured as Increased life span at 30 mg/kg.; assay type: functional; conditions: Mus musculus
Mus musculus [43] = assay: Average weight of the mouse after treating with 60 mg/kg dose for 7 days.; assay type: functional
Mus musculus [44] = assay: Average weight of the mouse after treating with 30 mg/kg dose for 7 days.; assay type: functional
Mus musculus [45] = assay: Average weight of the mouse after treating with 15 mg/kg dose for 7 days.; assay type: functional
Mus musculus [46] = assay: Average weight of the mouse after treating with 15 mg/kg dose for 1 day.; assay type: functional
L1210 [47] = assay: In vivo anti tumor activity against L1210 leukemia in 10 mice measured as median survival range at 30 mg/kg; Value ranges from(11-17).; assay type: functional, Mus musculus
L1210 [48] = assay: In vivo antitumor activity against L1210 leukemia in 10 mice measured as median survival range at 15 mg/kg; Value ranges from(15-20); assay type: functional, Mus musculus
L1210 [49] = assay: In vivo antitumor activity against L1210 leukemia in 16 mice measured as T/C values; T/C = 16/9; assay type: functional, Mus musculus
L1210 [50] = assay: In vivo anti tumor activity against L1210 leukemia in 10 mice measured as median survival range at 60 mg/kg; Value ranges from(7-24); assay type: functional, Mus musculus
L1210 [51] = assay: In vivo anti tumor activity against L1210 leukemia in 10 mice measured as Increased life span at 60 mg/kg.; assay type: functional; conditions: Mus musculus
L1210 [52] = assay: In vivo anti tumor activity against L1210 leukemia in 5 mice measured as Increased life span.; assay type: functional, Mus musculus

CN(Cc1cnc2nc(N)nc(N)c2n1)c1ccc(C(=O)NC(CCC(=O)OCc2cc3c(cc2Cl)OCO3)C(=O)OCc2cc3c(cc2Cl)OCO3)cc1 (stereo not drawn)
T/C (L1210 [1]): 9 | Range (L1210 [2]): 22 | Weight change (Mus musculus [3]): 1 | T/C (L1210 [4]): 11 | ILS at 10 mg/kg (L1210 [5]): 88% | ILS at 40 mg/kg (L1210 [6]): 167% | Weight change (Mus musculus [7]): 0.2 | Range (L1210 [8]): 20 | T/C (L1210 [9]): 9 | ILS at 20 mg/kg (L1210 [10]): 100% | Average weight (Mus musculus [11]): 21.4 | Weight change (Mus musculus [12]): 2.1 | Average weight (Mus musculus [13]): 22.2 | Range (L1210 [14]): 27 | Average weight (Mus musculus [15]): 22.5

CN(Cc1cnc2nc(N)nc(N)c2n1)c1ccc(C(=O)NC(CCC(=O)OCc2c(Cl)cccc2Cl)C(=O)OCc2c(Cl)cccc2Cl)cc1 (stereo not drawn)
T/C (L1210 [16]): 9 | Range (L1210 [17]): 21 | T/C (L1210 [9]): 9 | ILS at 20 mg/kg (L1210 [10]): 167% | Range (L1210 [18]): 25 | Weight change (Mus musculus [19]): 0.8 | Weight change (Mus musculus [12]): 1.4 | ILS at 10 mg/kg (L1210 [20]): 66% | Average weight (Mus musculus [13]): 22.4 | Average weight (Mus musculus [15]): 21.6

CCOCCOC(=O)CCC(NC(=O)c1ccc(N(C)Cc2cnc3nc(N)nc(N)c3n2)cc1)C(=O)OCCOCC (stereo not drawn)
Range (L1210 [21]): 20 | ILS at 40 mg/kg (L1210 [6]): 55% | T/C (L1210 [22]): 9 | T/C (L1210 [23]): 9 | Range (L1210 [24]): 15 | ILS at 20 mg/kg (L1210 [10]): 44% | Weight change (Mus musculus [25]): 0.5 | Average weight (Mus musculus [11]): 23.1 | Average weight (Mus musculus [13]): 22.6 | Weight change (Mus musculus [26]): 1.5

CC(C)CCOC(=O)CCC(NC(=O)c1ccc(N(C)Cc2cnc3nc(N)nc(N)c3n2)cc1)C(=O)OCCC(C)C (stereo not drawn)
Range (L1210 [27]): 13 | Range (L1210 [28]): 16 | ILS at 10 mg/kg (L1210 [5]): 33% | Weight change (Mus musculus [29]): 3 | ILS at 40 mg/kg (L1210 [6]): 88% | T/C (L1210 [30]): 14 | ILS at 20 mg/kg (L1210 [10]): 33% | Range (L1210 [31]): 21 | Weight change (Mus musculus [25]): 1 | Average weight (Mus musculus [11]): 23.2 | T/C (L1210 [32]): 17 | T/C (L1210 [33]): 12 | Average weight (Mus musculus [13]): 23.7 | Average weight (Mus musculus [15]): 21.9 | Weight change (Mus musculus [26]): 1.9

CCCOC(=O)CCC(NC(=O)c1ccc(N(C)Cc2cnc3nc(N)nc(N)c3n2)cc1)C(=O)OCCC (stereo not drawn)
Range (L1210 [34]): 17 | T/C (L1210 [35]): 19 | Weight change (Mus musculus [25]): 0.3 | ILS at 40 mg/kg (L1210 [36]): 100% | ILS at 20 mg/kg (L1210 [37]): 44% | Average weight (Mus musculus [11]): 21.1 | T/C (L1210 [38]): 13 | Range (L1210 [39]): 16 | Average weight (Mus musculus [13]): 21.4 | Weight change (Mus musculus [26]): 2.1

CCCCOC(=O)CCC(NC(=O)c1ccc(N(C)Cc2cnc3nc(N)nc(N)c3n2)cc1)C(=O)OCCCC (stereo not drawn)
Average weight (Mus musculus [40]): 26.1 | Average weight (Mus musculus [41]): 24.9 | ILS at 30 mg/kg (L1210 [42]): 66% | Weight change (Mus musculus [43]): 5.1 | Weight change (Mus musculus [44]): 4.1 | Weight change (Mus musculus [45]): 4.2 | Average weight (Mus musculus [46]): 25.3 | Range (L1210 [47]): 17 | Range (L1210 [48]): 20 | T/C (L1210 [49]): 9 | Range (L1210 [50]): 24 | ILS at 60 mg/kg (L1210 [51]): 88% | ILS (L1210 [52]): 77%
